Assay results from patent publication US9017938B2, “Use of microrna-199b-5p in medical and diagnostic field” (Advanced Accelerator Applications, priority 2009, dated 2015).

What was measured:
[1] = tested on: HES1; experiment: Western blotting of HES1 protein; assay type: cell-based, human
Description: (§1) Thirty μg cytosolic or nuclear lysates were loaded onto 12% polyacrilamide gels, and blotted onto polyvinylidene difluoride membranes (PVDF; BioRad, Milan, Italy). The membranes were then incubated with anti-HES1 (kind gift of Dr. Tetsuo Sudo TORAY Industries, Tebiro Kamakura, Japan), a polyclonal rabbit antibody (1:500), an anti-GSK3-β (B&D Bioscience) monoclonal antibody (1:2500), an anti-c-Myc polyclonal rabbit antibody (1:200) (Santa Cruz Biotechnology, Santa Cruz, Calif., USA), an anti-GABRA6 antibody (Santa Cruz Biotechnology, Santa Cruz, USA) (1:200), an anti-MATH3 antibody (Santa Cruz Biotechnology, Santa Cruz, USA) (1:200) and an anti-cyclin D1 (1:200) polyclonal rabbit antibody (Cell Signaling). An anti-β-actin antibody (1:1.000) (Sigma) was used as the control for equal loading of cytosolic lysates and a polyclonal anti-β-laminin antibody (1:50) (Santa Cruz Biotechnology, Santa Cruz, Calif., USA) for equal loading of nuclear lysates.

[2] = tested on: Daoy cells; experiment: Proliferation assay MTS, Daoy; assay type: cell-based, human; conditions: stable 199bMC1 and 199bSC1 clones vs empty-vector clone
Description: (§2) Cell proliferation was determined using the CellTiter96 AQueous Non-Radioactive Cell Proliferation Assay Kit (Promega Madison, Wis.). The cells were seeded into 96-well plates at a density of 1×10^3 cells/well in EMEM without or with FBS. After 0, 24, 48 and 72 h, MTS ([3-(4,5-dimethylthiazol-2-yl)-5-(3-carboxymethoxyphenyl)-2-(4-sulfophenyl)-2H-tetrazolium]) and PMS (phenazine methosulfate) were added to each well and after 4 h the absorbance of each well was measured at 490 nm (OD490) using Multilabel counter Victor^3 (Perkin Elmer). Each condition was performed with five wells and each experiment was repeated twice.
Proliferation assay (MTS) was made by kit CellTiter96 AQueous Non-Radioactive Cell Proliferation Assay (Promega) for 72 h. The cell lines daoy, MDA-231T and 4t1 treated with the control SNALP and with the miR 199b-5p were transferred in 96 multiwell at the concentration of 1000 and 3000 cells (daoy, MDA-231T and 4t1, respectively) in 100 μl of complete medium. For each experimental point were done 5 replicates. After 24, 48 e 72 h in each well was added 20 μl of 5× solution. After 4 h was read the absorbance of the formazane at 490 nm by Multilabel counter Victor3 (Perkin Elmer).

[3] = tested on: D283MED cells; experiment: Proliferation assay MTS, D283MED; assay type: cell-based, human; conditions: transient transfection vs mock-transfected cells
Description: as §2

[4] = tested on: ONS76 cells; experiment: Proliferation assay MTS, ONS76; assay type: cell-based; conditions: transient transfection vs mock-transfected cells
Description: as §2

[5] = tested on: Daoy cells; experiment: Soft-agar colony formation assay; assay type: cell-based, human; conditions: stable 199bSC1 clone vs empty-vector clone
Description: Daoy cells and the stable 199b clone were seeded in 1 ml EMEM supplemented with 2% FBS, containing 0.3% agarose. Cultures were maintained for two weeks and refreshed with EMEM supplemented with 2% FBS twice per week. Colonies of more than 100 μm in diameter were counted under a Leica (Nussloch, Germany) DC500 compound microscope.

[6] = tested on: CD133+ Daoy cells; experiment: CD133 FACS analysis; assay type: cell-based, human
Description: The flow cytometry analysis of S-phase fractions and cell-cycle kinetics were carried out using a FACSCalibur (Becton Dickinson, San Jose, Calif.) using CELL Quest version 3.3 software. The CD133 studies were carried out using the same instrument, with antibodies from Miltenyi Biotec (Auburn, Calif.), according to the manufacturer instructions. In brief, the cells were blocked in Fc receptor blocking reagent and incubated with an anti-CD133/1 (AC133)-phycoerythrin antibody (Miltenyi Biotec), for 10 min in the dark at 4° C. The cells were then washed and resuspended in PBS. Cells expressing higher levels of CD133 than the immunoglobulin G (IgG) controls were considered positive. For analyses of the side populations, cells […] were incubated with Hoechst 33342 (5 μmol/L; Sigma) for 90 min at 37° C. in EMEM containing 2% FBS. To ensure the correct identification of the side population cells, the cells were incubated as above with the addition of 50 μM verapamil (Sigma).

[7] = tested on: GSK3-β; experiment: Western blotting of GSK3-β; assay type: cell-based, human; conditions: stable 199bSC1 clone
Description: as §1

[8] = tested on: NHLH2 3′UTR; experiment: Luciferase reporter assay, full-length 3′UTR; assay type: cell-based; conditions: miR-199b-5p over-expression in Daoy cells
Description: (§3) To determine the activity of miR-199b-5p on repression of the luciferase-3′UTR fused constructs, the pREYZO-miR-199b-5p construct and the pRL-CMV-3′UTR target construct were co-transfected into HEK293 cells at a ratio of 10:1, using the Polyfect reagent (Qiagen) together with the pGL3 basic vector, in the absence and presence of 2-OM (400 nM). Luciferase activities were analysed using a Dual Luciferase Reporter Assay system (Promega, Madison, Wis.).

[9] = tested on: Nanog 3′UTR; experiment: Luciferase reporter assay, full-length 3′UTR; assay type: cell-based; conditions: miR-199b-5p over-expression in Daoy cells
Description: as §3

[10] = tested on: cyclin L1 3′UTR; experiment: Luciferase reporter assay, full-length 3′UTR; assay type: cell-based; conditions: miR-199b-5p over-expression in Daoy cells
Description: as §3

Question: “miR-199b-5p: mature microRNA CCCAGUGUUUAGACUAUCUGUUC (SEQ ID NO:11); over-expressed from pre-miR-199b construct, e.g. stable Daoy clones 199bSC1, 199bMC1 (listed as RNA, chemistry not fully specified)” was tested. Which “endogenous HES1 protein level” value ([1]; D283 cells, transient transfection vs empty vector) did it give?
Answer: Its value is “lowered the levels of the endogenous HES1 protein”.

Question: What about the “endogenous HES1 protein level” value ([1]; HEK293 cells, transient transfection, 48 h) of the same substance?
Answer: The value was “lowered the levels of the endogenous HES1 protein”.

Question: What about the HES1 protein level ([1]; stable Daoy clone 199bSC1) of the same substance?
Answer: The HES1 protein level was “no detectable HES1”.

Question: What about the HES1 protein level ([1]; three stable Daoy clones over-expressing miR-199b-5p) of the same substance?
Answer: Its HES1 protein level is “reduced HES1 protein levels”.

Question: What about the proliferation rate [2] of the same substance?
Answer: Its proliferation rate is “markedly reduced proliferation rates”.

Question: And the proliferation [3]?
Answer: The proliferation was “decreased proliferation”.

Question: What about the proliferation [4] of the same substance?
Answer: Its proliferation is “decreased proliferation”.

Question: And the “reduction in colony formation potential” value [5]?
Answer: Its value is 80%.

Question: And the “CD133+ cells” value ([6]; stable 199bMC1 clone (wild-type cells 14.8%))?
Answer: Its value is 6.5%.

Question: And the “CD133+ cells” value ([6]; stable 199bSC1 clone (wild-type cells 14.8%))?
Answer: The value was 2.4%.

Question: And the GSK3-β protein levels [7]?
Answer: Its GSK3-β protein levels is “did not show any significant reductions”.

Question: What about the “down-regulation of reporter carrying NHLH2 3′UTR” value [8] of the same substance?
Answer: The value was “did not detect any down-regulatory effects”.

Question: What about the “down-regulation of reporter carrying Nanog 3′UTR” value [9] of the same substance?
Answer: The value was “did not detect any down-regulatory effects”.

Question: And the “down-regulation of reporter carrying cyclin L1 3′UTR” value [10]?
Answer: The value was “did not detect any down-regulatory effects”.
